Results: the supplement of paper PMC10307832

Legend:
[1] = compound: C1CSC2=C(C(=O)N1)SC3=C2C=C(C=C3)O [kb NB 142-70]; test: relative viability (nuclei count vs DMSO), 5 days (fraction); higher = more cells survive
In short: (§1)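 Lung cancer cell lines in 1536-well plates were kept overnight at 37 °C, then pinned with five library-drug doses (not always all listed) spaced by √10 on vehicle-anchored plates. After 5 days without medium change, cells were fixed, permeabilised and Hoechst-stained in one step, imaged at 4×, and nuclei were counted with MetaXpress. Viability is treated-well nuclei divided by vehicle-well nuclei, taken as the median over plates. Plates passed only with control CV below 25% and at least one doubling.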

[2] = compound: NCC(=O)Nc1ccc(-n2nc(C(F)(F)F)cc2-c2ccc3c(ccc4ccccc43)c2)cc1; test: as above
In short: as §1

| Cell Line | relative viability ([1]; 0.1 µM) | relative viability ([1]; 1 µM) | relative viability ([1]; 3.162 µM) | relative viability ([2]; 0.02 µM) | relative viability ([2]; 0.06325 µM) | relative viability ([2]; 0.2 µM) | relative viability ([2]; 0.6325 µM) | relative viability ([2]; 2 µM) |
| --- | --- | --- | --- | --- | --- | --- | --- | --- |
| 201T | 1.01 | 0.966 | 1.02 | 0.892 | 1.01 | 0.98 | 0.989 | 1.01 |
| A549 | 0.96 | 0.957 | 0.689 | 1.03 | 0.987 | 1.01 | 0.949 | 0.915 |
| A-427 | 1.04 | 1 | 0.969 | 0.766 | 1.06 | 0.998 | 0.994 | 1.03 |
| ABC-1 | 0.984 | 0.985 | 0.494 | 0.914 | 0.926 |  | 0.996 | 0.86 |
| BEN | 0.961 | 0.894 | 0.738 | 0.99 | 0.972 | 0.994 | 0.894 | 0.975 |
| CAL-12T | 0.985 | 1.07 | 0.904 | 0.957 | 1.01 | 1.05 | 0.949 | 1.08 |
| COR-L23 | 0.961 | 1.14 | 0.507 | 1.08 | 1.02 | 1.07 | 1 | 0.882 |
| COR-L 105 | 0.86 | 0.88 | 1.02 | 0.843 | 1.02 | 0.916 | 0.891 | 0.94 |
| Calu-6 | 1.04 | 0.996 | 0.614 | 0.962 | 1.05 | 1.03 | 1 | 0.977 |
| ChaGo-K-1 | 1.06 | 1.05 | 0.946 | 0.98 | 0.994 | 0.941 | 0.971 | 1.03 |
| EBC-1 | 1.01 | 1 | 0.643 | 1.01 | 1.03 | 1.07 | 1.02 | 1.01 |
| EKVX | 0.933 | 0.981 | 0.988 | 1.03 | 1.01 | 0.971 | 0.966 | 1.01 |
| EMC-BAC-2 | 1.08 | 0.972 | 0.632 | 0.918 | 1.01 | 1.05 | 0.931 | 1 |
| EPLC-272H | 0.988 | 0.905 | 0.447 | 0.904 | 1.2 | 0.874 | 1.01 | 0.911 |
| H3255 | 1.01 | 0.954 | 1.02 | 0.951 | 1.01 | 0.974 | 0.866 | 1.05 |
| HARA | 0.986 | 0.971 | 1.02 | 0.901 | 1.09 | 0.975 | 1.11 | 1.07 |
| HCC-15 | 1.03 | 1 | 0.978 | 1 | 1.06 | 0.963 | 1.03 | 1.02 |
| HCC-44 | 1.01 | 0.997 | 1.08 | 0.996 | 1.03 | 0.952 | 0.984 | 1 |
| HCC-78 | 1.08 | 0.998 | 0.877 | 0.993 | 0.93 | 1.04 | 0.944 | 0.968 |
| HCC-366 | 1.01 | 0.976 | 0.927 | 1.01 | 1.07 | 1 | 1.01 | 0.934 |

| Cell Line | relative viability ([1]; 0.1 µM) | relative viability ([1]; 1 µM) | relative viability ([1]; 3.162 µM) | relative viability ([2]; 0.02 µM) | relative viability ([2]; 0.06325 µM) | relative viability ([2]; 0.2 µM) | relative viability ([2]; 0.6325 µM) | relative viability ([2]; 2 µM) |
| --- | --- | --- | --- | --- | --- | --- | --- | --- |
| HCC-827 | 1.07 | 1.03 | 0.971 | 1.03 | 1.05 | 0.987 | 1.02 | 1.1 |
| HOP-62 | 1.03 | 1.04 | 0.911 | 1.03 | 0.997 | 0.943 | 0.928 | 1.05 |
| IA-LM | 0.818 | 1.05 | 1.06 | 1.01 | 1.03 | 1.02 | 1.08 | 0.996 |
| LC-2-ad | 1.09 | 0.977 | 0.886 | 0.951 | 1.08 | 1 | 0.968 | 1.01 |
| LCLC-97TM1 | 1.03 | 0.956 | 0.489 | 0.995 | 1.1 | 1 | 1.01 | 0.958 |
| LCLC-103H | 1.03 | 0.984 | 1.03 | 0.957 | 1.07 | 0.963 | 0.979 | 0.966 |
| LK-2 | 1.01 | 0.855 | 0.685 | 0.923 | 1.05 | 0.935 | 1.06 | 0.909 |
| LOU-NH91 | 0.959 | 0.974 | 0.63 | 0.963 | 1 | 0.951 | 0.965 | 1.06 |
| LU99A | 0.94 | 0.816 | 0.637 | 0.864 | 0.915 | 0.987 | 0.908 | 0.967 |
| LXF-289 | 0.999 | 1.03 | 0.975 | 1.01 | 1.06 | 0.988 | 0.991 | 1.03 |
| NCI-H23 | 1.05 | 0.689 | 0.336 | 0.863 | 1.04 | 0.988 | 0.904 | 0.846 |
| NCI-H322M | 1.03 | 1 | 0.92 | 1.01 | 0.958 | 0.92 | 0.98 | 0.996 |
| NCI-H358 | 0.943 | 0.725 | 0.137 | 0.965 | 0.993 | 0.925 | 0.939 | 0.94 |
| NCI-H441 | 0.975 | 0.967 | 0.637 | 0.977 | 1.04 | 1.28 | 0.947 | 0.956 |
| NCI-H460 | 1.01 | 0.99 | 0.979 | 0.974 | 0.995 | 1 | 0.987 | 0.976 |
| NCI-H520 | 0.985 | 0.884 | 0.544 | 1.01 | 1.04 | 1.1 | 0.933 | 1.05 |
| NCI-H522 | 1.04 | 0.784 | 0.635 | 0.886 | 0.978 | 0.922 | 0.96 | 0.925 |
| NCI-H596 | 1.02 | 1.1 | 0.981 | 1.12 | 1.11 | 1.06 | 0.992 | 0.945 |
| NCI-H647 | 1.01 | 1.03 | 0.99 | 0.934 | 1.03 | 1.07 | 0.943 | 0.897 |
| NCI-H650 | 1.02 | 0.906 | 0.825 | 0.866 | 0.977 | 0.981 | 0.866 | 1.02 |
